Laboratory results from PMC10924921, “Mi-2β promotes immune evasion in melanoma by activating EZH2 methylation” (Nature Communications, 2024).

Columns and labels:
melanoma = details: cited from earlier work
[1] = biological target: recombinant purified human Mi-2β protein (Homo sapiens, UniProt Q14839); assay: FRET-based nucleosome repositioning assay (EpiDyne-FRET); details: read-out: apparent ATP Km; ATP titration 0.1 to 300 µM, 12.5 nM Mi-2β, 15 minutes
[2] = tested on: PC3 prostate cancer cells; parameters: method as in Shubhada Sharma, et al., Biochemistry 2013; details: ref Shubhada Sharma, et al., Biochemistry 2013; read-out: IC50, cytotoxicity; cited from earlier work
[3] = tested on: BRafV600E/Ptennull melanoma cells with or without Mi-2β; assay: CCK-8 proliferation after Braf inhibitor; type: cell-based, mouse; details: 10 μM, 24 h
Method: To test whether Mi-2β deficiency affects the sensitivity of tumor cells to Braf inhibitors, melanoma cells were isolated from Tyr::CreER;BRaf^CA;Pten^lox/lox and Tyr::CreER;BRaf^CA;Pten^lox/lox; Mi-2β^lox/lox mice and a cell proliferation assay was performed. BRAF mutation and Mi-2β-depleted melanoma cells or BRAF mutation melanoma cells (5 × 10^3 cells/100 μl) were cultured with 10 μM PLX4032 (Selleck, China) for 24 h and cell proliferation of melanoma cells were determined using the CCK-8 assay.
Supplementary Figure 2. […] Scale bar=200 µm. b Tumor-infiltrating lymphocytes were assayed by flow cytometry. c Treg cells within CD45+ T cells in TILs were assayed and quantified by flow cytometry.
(n=5). d Melanomas isolated from BRafV600E/Ptennull mice and BRafV600E/Ptennull /Mi-2βnull mice were processed for immunohistochemistry staining to detect the number of CD8+ T cells. […] Melanoma cells isolated from Tyr::CreER;BRafCA;Ptenlox/lox and Tyr::CreER;BRafCA;Ptenlox/lox;Mi-2βlox/lox mice were treated with PLX4032 (10μM) for 24 hours and cell proliferation was determined by CCK-8 assay (n=6). c, e, f: Values represent mean ± SD. […]

recombinant purified human Mi-2β protein, sequence (Q14839 whole entry): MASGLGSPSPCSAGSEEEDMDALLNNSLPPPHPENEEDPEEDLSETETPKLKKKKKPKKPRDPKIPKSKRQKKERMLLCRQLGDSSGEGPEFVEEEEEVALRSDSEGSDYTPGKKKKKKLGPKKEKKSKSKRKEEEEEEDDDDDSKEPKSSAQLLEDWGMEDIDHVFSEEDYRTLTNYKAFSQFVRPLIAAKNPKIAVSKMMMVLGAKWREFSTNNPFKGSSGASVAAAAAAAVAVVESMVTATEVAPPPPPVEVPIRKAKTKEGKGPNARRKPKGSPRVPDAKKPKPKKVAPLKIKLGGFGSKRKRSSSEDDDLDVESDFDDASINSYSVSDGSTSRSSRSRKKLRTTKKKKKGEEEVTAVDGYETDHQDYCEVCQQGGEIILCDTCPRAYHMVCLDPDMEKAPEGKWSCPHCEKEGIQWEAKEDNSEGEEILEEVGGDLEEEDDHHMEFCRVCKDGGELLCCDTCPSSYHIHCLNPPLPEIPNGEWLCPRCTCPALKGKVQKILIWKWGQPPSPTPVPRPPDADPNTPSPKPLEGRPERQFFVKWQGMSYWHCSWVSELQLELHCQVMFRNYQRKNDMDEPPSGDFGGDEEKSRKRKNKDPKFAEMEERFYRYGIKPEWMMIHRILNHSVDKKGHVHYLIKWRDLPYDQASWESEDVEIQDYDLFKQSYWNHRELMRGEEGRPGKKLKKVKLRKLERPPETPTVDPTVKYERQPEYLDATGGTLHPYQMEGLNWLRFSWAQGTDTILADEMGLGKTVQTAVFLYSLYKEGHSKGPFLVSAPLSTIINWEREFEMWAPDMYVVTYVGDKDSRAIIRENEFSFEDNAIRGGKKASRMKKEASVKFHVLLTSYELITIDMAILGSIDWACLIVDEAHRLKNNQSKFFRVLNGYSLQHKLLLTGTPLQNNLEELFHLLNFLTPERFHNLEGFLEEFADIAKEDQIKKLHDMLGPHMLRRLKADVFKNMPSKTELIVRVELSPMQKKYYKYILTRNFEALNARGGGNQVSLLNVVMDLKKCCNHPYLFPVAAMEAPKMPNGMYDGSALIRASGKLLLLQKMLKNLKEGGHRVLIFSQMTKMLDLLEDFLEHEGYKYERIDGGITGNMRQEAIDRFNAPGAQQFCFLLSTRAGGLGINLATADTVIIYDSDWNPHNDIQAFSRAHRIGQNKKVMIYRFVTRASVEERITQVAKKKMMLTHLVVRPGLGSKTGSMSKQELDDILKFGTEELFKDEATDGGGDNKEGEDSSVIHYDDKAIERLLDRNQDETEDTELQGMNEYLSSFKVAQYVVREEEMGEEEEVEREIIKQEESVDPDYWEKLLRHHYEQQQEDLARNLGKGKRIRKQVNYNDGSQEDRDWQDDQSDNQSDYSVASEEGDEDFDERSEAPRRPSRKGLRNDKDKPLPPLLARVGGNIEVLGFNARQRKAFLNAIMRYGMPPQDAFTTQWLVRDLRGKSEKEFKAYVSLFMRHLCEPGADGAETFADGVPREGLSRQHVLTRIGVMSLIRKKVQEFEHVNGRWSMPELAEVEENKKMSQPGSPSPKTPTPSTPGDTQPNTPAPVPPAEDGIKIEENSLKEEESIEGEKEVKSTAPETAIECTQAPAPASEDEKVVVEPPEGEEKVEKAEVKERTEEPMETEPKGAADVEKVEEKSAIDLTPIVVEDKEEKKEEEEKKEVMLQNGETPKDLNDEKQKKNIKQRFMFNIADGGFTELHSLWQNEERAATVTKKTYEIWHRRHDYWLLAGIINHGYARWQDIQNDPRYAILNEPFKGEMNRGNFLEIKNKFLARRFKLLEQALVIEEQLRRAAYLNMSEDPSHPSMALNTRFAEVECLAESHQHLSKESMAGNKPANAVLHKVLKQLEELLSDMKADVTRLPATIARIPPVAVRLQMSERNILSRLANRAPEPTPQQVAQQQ

ipilimumab: anti-CTLA-4 antibody
melanoma patients that respond (melanoma): 20%

pembrolizumab: anti-PD-1 antibody
melanoma patients that respond (melanoma): 33%

Nc1ncnc2c1ncn2[C@@H]1O[C@H](COP(=O)(O)OP(=O)(O)OP(=O)(O)O)[C@@H](O)[C@H]1O [ATP]
Km [1]: 11.5 µM

CC(=O)O[C@H]1C(=O)[C@@]2(C)[C@H]([C@H](OC(=O)c3ccccc3)[C@]3(O)C[C@H](OC(=O)[C@H](O)[C@@H](NC(=O)c4ccccc4)c4ccccc4)C(C)=C1C3(C)C)[C@]1(OC(C)=O)CO[C@@H]1C[C@@H]2O [paclitaxel]
IC50 [2]: 1.41 nM

CCCS(=O)(=O)Nc1ccc(F)c(C(=O)c2c[nH]c3ncc(-c4ccc(Cl)cc4)cc23)c1F [PLX4032]
cell survival in melanoma cells with or without Mi-2β expression [3]: no difference in cell survival
